pEC50, pIC50: −log10 of the molar value.

As a reminder, the pEC50 is −log10 of the EC50, conventionally taken in molar units. As usually defined, the pIC50 is the negative decadic logarithm of the IC50, by convention in mol/L. A low value points to a high IC50.

For assay [1], the target named is T1, STAT6 (Homo sapiens, UniProt P42226).
T1 construct: stably transfected HaCaT keratinocyte cell line, which expresses NanoLuc luciferase reporter gene under the transcriptional control of the STAT6 responsive promoter; endogenous in cells; host or cells: HaCaT keratinocyte reporter cell line (stably transfected with a NanoLuc reporter)
T1 sequence (P42226 1-847): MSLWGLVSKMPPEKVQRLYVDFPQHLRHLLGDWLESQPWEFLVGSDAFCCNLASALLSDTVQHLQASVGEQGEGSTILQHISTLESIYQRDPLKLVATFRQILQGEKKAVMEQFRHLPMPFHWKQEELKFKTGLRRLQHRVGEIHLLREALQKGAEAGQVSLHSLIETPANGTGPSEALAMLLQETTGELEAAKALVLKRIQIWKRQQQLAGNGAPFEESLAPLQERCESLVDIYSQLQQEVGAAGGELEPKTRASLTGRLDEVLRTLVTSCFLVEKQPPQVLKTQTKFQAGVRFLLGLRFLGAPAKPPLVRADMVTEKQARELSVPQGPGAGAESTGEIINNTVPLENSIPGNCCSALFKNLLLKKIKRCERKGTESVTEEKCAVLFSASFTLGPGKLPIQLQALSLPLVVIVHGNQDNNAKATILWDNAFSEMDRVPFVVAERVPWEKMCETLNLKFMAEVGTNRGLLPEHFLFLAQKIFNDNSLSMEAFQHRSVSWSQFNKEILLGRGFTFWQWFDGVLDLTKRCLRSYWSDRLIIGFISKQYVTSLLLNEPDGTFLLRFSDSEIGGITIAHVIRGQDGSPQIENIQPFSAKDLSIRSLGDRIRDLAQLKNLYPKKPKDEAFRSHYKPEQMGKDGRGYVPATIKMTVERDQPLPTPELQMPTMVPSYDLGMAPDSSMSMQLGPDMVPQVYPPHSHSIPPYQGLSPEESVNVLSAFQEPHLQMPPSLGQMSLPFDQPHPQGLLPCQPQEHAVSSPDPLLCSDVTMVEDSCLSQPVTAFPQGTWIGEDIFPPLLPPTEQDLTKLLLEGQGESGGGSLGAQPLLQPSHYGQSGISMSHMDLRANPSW
In words: STAT6 Reporter Luciferase Assay (IL-13 stimulated HaCaT keratinocyte NanoLuc reporter cells). The format is cell-based. Conditions: STAT6 NanoLuc luciferase reporter, IL-13 stimulated HaCaT keratinocyte cells; read-out: Reporter EC50. The essentials: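 HaCaT cells stably carrying a NanoLuc reporter driven by the STAT6-responsive IL-13Ra2 promoter were preincubated with compounds for 2 h at 37 °C in 2% FBS medium. Cells were then stimulated with 0.12 nM IL-13 for 4 h, and luminescence was read after Nano-Glo substrate. Compounds ran as 11-point 4-fold dilutions in duplicate.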
(A reporter such as luciferase makes a cellular process visible.)

Assay [2] deals with CCL17 secretion in peripheral human whole blood. The experiment in a line: Human Whole Blood (HWB) CCL17 TR-FRET Assay (IL-13 stimulated CCL17 secretion). The format is cell-based. The conditions noted are these: Homo sapiens, 48 h, inhibition of CCL17 secretion in human whole blood, 10 ng/mL IL13, 48 hours. The gist of the method:
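Compounds are titrated (11 points, 3-fold, duplicate) into fresh heparinized human whole blood and held 2 h at 37 °C before IL-13 challenge (10 ng/mL final). After 48 h at 37 °C, serum CCL17 is measured by TR-FRET sandwich assay and IC50 values are calculated.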
(Time-resolved FRET reads energy transfer from a long-lived donor to a nearby acceptor.)

For `CC(C)n1nc(C(=O)NCc2ccc(NC(=O)N3CCCCC3)cc2)c2c1CCN(c1ccc(C(=O)N(C)C)cn1)C2` [Example 144, 5-(5-(dimethylcarbamoyl)pyridin-2-yl)-1-isopropyl-N-(4-(piperidine-1-carboxamido)benzyl)-4,5,6,7-tetrahydro-1H-pyrazolo[4,3-c]pyridine-3-carboxamide], the pEC50 in assay [1] was 8.15. The molecule also showed a pIC50 in assay [2] of 6.53.

On to `CC(C)n1nc(C(=O)NCc2ccc(NC(=O)N(C)C)cc2)c2c1CCN(c1ccc(N3CCCS3(=O)=O)cn1)C2` [Example 146, N-(4-(3,3-dimethylureido)benzyl)-5-(5-(1,1-dioxidoisothiazolidin-2-yl)pyridin-2-yl)-1-isopropyl-4,5,6,7-tetrahydro-1H-pyrazolo[4,3-c]pyridine-3-carboxamide], for which the pEC50 in assay [1] is 6.90. The molecule also showed a pIC50 in assay [2] of 5.67.

On to `CC(=O)Nc1ccc(CNC(=O)c2nn(C(C)C)c3c2CN(c2ccc(C(=O)N(C)C)cn2)CC3)cc1` [Example 147, N-(4-acetamidobenzyl)-5-(5-(dimethylcarbamoyl)pyridin-2-yl)-1-isopropyl-4,5,6,7-tetrahydro-1H-pyrazolo[4,3-c]pyridine-3-carboxamide], for which, in assay [1], the pEC50 is 7.59. The molecule also showed a pIC50 in assay [2] of 6.60.

In the case of `CN(C)C(=O)Nc1ccc(CNC(=O)c2nn(C(C)(C)C)c3c2CN(c2ccc(C(=O)N(C)C)cn2)CC3)cc1` [Example 148, 1-(tert-butyl)-5-(5-(dimethylcarbamoyl)pyridin-2-yl)-N-(4-(3,3-dimethylureido)benzyl)-4,5,6,7-tetrahydro-1H-pyrazolo[4,3-c]pyridine-3-carboxamide], the pEC50 in assay [1] is 8.00. The pIC50 in assay [2] is 6.75.

Turning to `CC(C)n1nc(C(=O)NCc2ccc(NC(=O)N3CC(C)(N(C)C)C3)cc2)c2c1CCN(c1ccc(C(=O)N(C)C)cn1)C2` [Example 150, N-(4-(3-(dimethylamino)-3-methylazetidine-1-carboxamido)benzyl)-5-(5-(dimethylcarbamoyl)pyridin-2-yl)-1-isopropyl-4,5,6,7-tetrahydro-1H-pyrazolo[4,3-c]pyridine-3-carboxamide], the pEC50 in assay [1] was 7.74. This molecule had a negative-log IC50 (pIC50) in assay [2] of 7.15.

Turning to `CC(C)n1nc(C(=O)NCc2ccc(NC(=O)N3CCC4(COC4)C3)cc2)c2c1CCN(c1ccc(C(=O)N(C)C)cn1)C2` [Example 152, N-(4-((5-(5-(dimethylcarbamoyl)pyridin-2-yl)-1-isopropyl-4,5,6,7-tetrahydro-1H-pyrazolo[4,3-c]pyridine-3-carboxamido)methyl)phenyl)-2-oxa-6-azaspiro[3.4]octane-6-carboxamide], in assay [1], the pEC50 was 7.51. The pIC50 in assay [2] is 6.81.

On to `CC(C)n1nc(C(=O)NCc2ccc(NC(=O)N3CC[C@H](F)C3)cc2)c2c1CCN(c1ccc(C(=O)N(C)C)cn1)C2` [Example 153, (S)-5-(5-(dimethylcarbamoyl)pyridin-2-yl)-N-(4-(3-fluoropyrrolidine-1-carboxamido)benzyl)-1-isopropyl-4,5,6,7-tetrahydro-1H-pyrazolo[4,3-c]pyridine-3-carboxamide], for which the pEC50 in assay [1] was 7.96. The molecule also showed a pIC50 in assay [2] of 6.97.

Take `CC(C)n1nc(C(=O)NCc2ccc(NC(=O)NCC3CC3)cc2)c2c1CCN(c1ccc(C(=O)N(C)C)cn1)C2` [Example 154, N-(4-(3-(cyclopropylmethyl)ureido)benzyl)-5-(5-(dimethylcarbamoyl)pyridin-2-yl)-1-isopropyl-4,5,6,7-tetrahydro-1H-pyrazolo[4,3-c]pyridine-3-carboxamide]: the pEC50 in assay [1] was 8.10. This molecule also gave a pIC50 in assay [2] of 6.35.

For the molecule `CC(C)n1nc(C(=O)NCc2ccc(NC(=O)N3CCC4(CC3)COC4)cc2)c2c1CCN(c1ccc(C(=O)N(C)C)cn1)C2` [Example 156, N-(4-((5-(5-(dimethylcarbamoyl)pyridin-2-yl)-1-isopropyl-4,5,6,7-tetrahydro-1H-pyrazolo[4,3-c]pyridine-3-carboxamido)methyl)phenyl)-2-oxa-7-azaspiro[3.5]nonane-7-carboxamide], the negative-log EC50 (pEC50) in assay [1] is 8.22. The pIC50 in assay [2] was 7.24.

Regarding `CC(C)n1nc(C(=O)NCc2ccc(NC(=O)NC3CCC3)cc2)c2c1CCN(c1ccc(C(=O)N(C)C)cn1)C2` [Example 157, N-(4-(3-cyclobutylureido)benzyl)-5-(5-(dimethylcarbamoyl)pyridin-2-yl)-1-isopropyl-4,5,6,7-tetrahydro-1H-pyrazolo[4,3-c]pyridine-3-carboxamide], in assay [1], the pEC50 was 8.10. Moreover, the pIC50 in assay [2] is 6.27.

Turning to `CC(C)n1nc(C(=O)NCc2ccc(NC(=O)N3CC(C#N)C3)cc2)c2c1CCN(c1ccc(C(=O)N(C)C)cn1)C2` [Example 158, N-(4-(3-cyanoazetidine-1-carboxamido)benzyl)-5-(5-(dimethylcarbamoyl)pyridin-2-yl)-1-isopropyl-4,5,6,7-tetrahydro-1H-pyrazolo[4,3-c]pyridine-3-carboxamide], in assay [1], the pEC50 is 7.82. In assay [2], this molecule gave a pIC50 of 6.89.

As for `CC(C)n1nc(C(=O)NCc2ccc(NC(=O)N3CCO[C@H](CO)C3)cc2)c2c1CCN(c1ccc(C(=O)N(C)C)cn1)C2` [Example 159, (S)-N-(4-((5-(5-(dimethylcarbamoyl)pyridin-2-yl)-1-isopropyl-4,5,6,7-tetrahydro-1H-pyrazolo[4,3-c]pyridine-3-carboxamido)methyl)phenyl)-2-(hydroxymethyl)morpholine-4-carboxamide], in assay [1], the pEC50 was 7.80. This molecule had a pIC50 in assay [2] of 7.23.

As for `CC(C)n1nc(C(=O)NCc2ccc(NC(=O)N3CCC(C(F)F)CC3)cc2)c2c1CCN(c1ccc(C(=O)N(C)C)cn1)C2` [Example 161, N-(4-(4-(difluoromethyl)piperidine-1-carboxamido)benzyl)-5-(5-(dimethylcarbamoyl)pyridin-2-yl)-1-isopropyl-4,5,6,7-tetrahydro-1H-pyrazolo[4,3-c]pyridine-3-carboxamide], the pEC50 in assay [1] was 8.15. This molecule gave a pIC50 in assay [2] of 6.70.

As to `CC(C)n1nc(C(=O)NCc2ccc(NC(=O)N3CCC(OCCO)CC3)cc2)c2c1CCN(c1ccc(C(=O)N(C)C)cn1)C2` [Example 162, 5-(5-(dimethylcarbamoyl)pyridin-2-yl)-N-(4-(4-(2-hydroxyethoxy)piperidine-1-carboxamido)benzyl)-1-isopropyl-4,5,6,7-tetrahydro-1H-pyrazolo[4,3-c]pyridine-3-carboxamide], the pEC50 in assay [1] was 7.96. The pIC50 in assay [2] was 7.18.

Turning to `CC(C)n1nc(C(=O)NCc2ccc(NC(=O)N3CC(C)(N)C3)cc2)c2c1CCN(c1ccc(C(=O)N(C)C)cn1)C2` [Example 163, N-(4-(3-amino-3-methylazetidine-1-carboxamido)benzyl)-5-(5-(dimethylcarbamoyl)pyridin-2-yl)-1-isopropyl-4,5,6,7-tetrahydro-1H-pyrazolo[4,3-c]pyridine-3-carboxamide], the negative-log EC50 (pEC50) in assay [1] was 7.80. This molecule also had a negative logarithm of the IC50 (pIC50) in assay [2] of 7.52.

On to `COC1(C)CN(C(=O)Nc2ccc(CNC(=O)c3nn(C(C)C)c4c3CN(c3ccc(C(=O)N(C)C)cn3)CC4)cc2)C1` [Example 165, 5-(5-(dimethylcarbamoyl)pyridin-2-yl)-1-isopropyl-N-(4-(3-methoxy-3-methylazetidine-1-carboxamido)benzyl)-4,5,6,7-tetrahydro-1H-pyrazolo[4,3-c]pyridine-3-carboxamide], for which, in assay [1], the pEC50 was 7.85. In assay [2], this molecule showed a pIC50 of 6.81.

Consider `CO[C@H]1CN(C(=O)Nc2ccc(CNC(=O)c3nn(C(C)C)c4c3CN(c3ccc(C(=O)N(C)C)cn3)CC4)cc2)C[C@@H]1O` [Example 166, 5-(5-(dimethylcarbamoyl)pyridin-2-yl)-N-(4-((3S,4S)-3-hydroxy-4-methoxypyrrolidine-1-carboxamido)benzyl)-1-isopropyl-4,5,6,7-tetrahydro-1H-pyrazolo[4,3-c]pyridine-3-carboxamide], for which the pEC50 in assay [1] was 8.40. The molecule also showed a pIC50 in assay [2] of 7.68.

These data come from patent publication US20250320213A1, “Nitrogen-Containing Heterocyclic Compounds” (Pfizer Inc., priority 2024, published 2025).
